# Several values for one entry are separate records, joined by “and”; a condition that tells them apart may be missing. Identical values can stand only once.
# Legend:
# [1] = target: T1, androgen receptor LBD (Panvera) (Rattus norvegicus, UniProt P15207); test: Androgen Receptor Filtration Binding Assay (PANVERA); settings: [3H] R1881 tracer 0.5 nM; read-out: IC50 (nM), Androgen Receptor Binding (Panvera)
# T1 construct: 5 pmol androgen receptor LBD (Panvera); purchased Panvera
# T1 sequence (P15207 651-882 limits assumed): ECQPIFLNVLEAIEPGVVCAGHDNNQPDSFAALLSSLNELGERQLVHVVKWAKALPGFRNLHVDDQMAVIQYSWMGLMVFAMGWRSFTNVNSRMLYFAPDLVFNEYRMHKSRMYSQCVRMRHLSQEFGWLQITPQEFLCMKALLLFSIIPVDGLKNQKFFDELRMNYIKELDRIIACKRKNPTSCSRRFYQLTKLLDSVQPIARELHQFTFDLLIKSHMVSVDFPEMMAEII
# Experimental: The assay was run on a 96 well plate with each well filled with a total reaction volume 150 μL, of a solution containing 5 pmol androgen receptor LBD (Panvera) or 30 μL of freshly prepared rat cytosol, 0.5 nM [^3H] […] (TED buffer contains 10 mM Tris.HCl pH 7.4, 1 mM sodium molybdate, 1.5 mM EDTA, 1 mM DTT and 10% (v/v) glycerol.)
# On day one, the solution containing receptor, tracer and TED buffer was distributed into a 96 well plate. Diluted test compound or control vehicle was then added to individual wells and the plate incubated at 4° C. overnight.
# On day two, to each well was then added 20 μL human γ-globulin (ICN 823102), prepared at 25 mg/ml in TE pH 8.0, and 55 μL 40% polyethylene glycol 8000 (J T Baker U222-08), prepared in TE pH 8.0. The plate was incubated at 4° C. for 60 minutes. During incubation, the harvester was rinsed with 10% PEG 8000, prepared in TE pH 8.0, and a GF/C Unifilter-96 was pre-wet with 10% PEG. The binding reaction was filtered, the retentate was washed three times with 10% PEG and dried under vacuum for a couple of minutes, then dried at 50° C. for 5 min and the plate was bottom sealed. Next, 25 μL of Microscint-20 (Packard) was added to the filter wells and the plate was top sealed. The plate wells were then counted on a TopCount (Packard).
# Counts per well were measured and IC50s determined by linear regression.
# [2] = target: T2, androgen receptor (rat ventral prostate cytosol) (Rattus norvegicus, UniProt P15207); test: Androgen Receptor Binding Using Rat Ventral Prostate Cytosol; settings: for inhibition at 1 µM: read-out: % Inhibition, Androgen Receptor Binding (Rat Cytosol); for IC50: read-out: IC50 (nM), Androgen Receptor Binding (Rat Cytosol)
# T2 construct: from tissue; host or cells: ventral prostate cytosol of castrated male Sprague Dawley or Wistar rats
# T2 sequence (P15207 1-902): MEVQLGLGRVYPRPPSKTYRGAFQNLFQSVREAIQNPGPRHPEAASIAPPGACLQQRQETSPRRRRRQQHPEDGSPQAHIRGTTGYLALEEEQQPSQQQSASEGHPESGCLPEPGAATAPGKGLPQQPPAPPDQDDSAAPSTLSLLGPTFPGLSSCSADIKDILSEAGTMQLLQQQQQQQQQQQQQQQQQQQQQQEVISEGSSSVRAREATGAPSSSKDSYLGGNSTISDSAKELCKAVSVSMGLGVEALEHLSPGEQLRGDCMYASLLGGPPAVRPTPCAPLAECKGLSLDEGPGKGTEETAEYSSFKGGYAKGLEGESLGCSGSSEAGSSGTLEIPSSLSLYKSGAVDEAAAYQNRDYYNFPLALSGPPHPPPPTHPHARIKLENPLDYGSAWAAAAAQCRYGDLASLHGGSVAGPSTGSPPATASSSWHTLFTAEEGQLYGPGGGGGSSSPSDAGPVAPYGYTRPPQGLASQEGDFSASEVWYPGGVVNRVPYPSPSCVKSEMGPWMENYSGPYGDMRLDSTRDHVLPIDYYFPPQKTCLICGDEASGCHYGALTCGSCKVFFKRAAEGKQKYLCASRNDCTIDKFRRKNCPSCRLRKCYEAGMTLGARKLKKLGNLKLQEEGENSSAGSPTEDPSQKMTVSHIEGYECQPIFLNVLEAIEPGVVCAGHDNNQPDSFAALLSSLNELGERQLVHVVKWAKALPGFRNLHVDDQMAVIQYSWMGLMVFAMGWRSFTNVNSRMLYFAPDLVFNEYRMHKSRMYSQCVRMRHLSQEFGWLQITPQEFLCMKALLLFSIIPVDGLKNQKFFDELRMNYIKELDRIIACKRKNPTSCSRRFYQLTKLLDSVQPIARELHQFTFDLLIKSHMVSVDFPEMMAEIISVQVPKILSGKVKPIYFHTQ
# In short: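 Cytosol from castrated rat ventral prostate was incubated overnight at 4°C with 0.5 nM [3H] tracer and compound in TED buffer (10 mM Tris-HCl pH 7.4, molybdate, EDTA, DTT, glycerol).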
# [3] = test system: testosterone-enhanced ventral prostate and seminal vesicle weights; test: Ventral Prostate and Seminal Vesicle Weight in vivo Assay; parameters: species or system rat; settings: immature castrated male Sprague Dawley rats, once daily for five days, usually orally 40 mg/kg, with testosterone propionate 2 mg/kg s.c. Also: key: 'active' if the non weight adjusted prostate weight was ≦40 mg or the % Inhibition prostate weight, body weight adjusted was ≧40% @ 2 mg/day dosage; ID50's, if determined, of ≦15 mg/day also indicated an 'active' compound; listed herein as 'inactive' as they did not meet the specified criteria defined above.
# In short: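 Immature castrated male Sprague Dawley rats (~50 g) were dosed once daily for five days with compound, usually orally at 40 mg/kg in cyclodextrin or methylcellulose vehicle. Testosterone propionate was co-dosed subcutaneously at 2 mg/kg. On day six, ventral prostate and seminal vesicle wet weights were measured; activity was judged on prostate weight or body-weight-adjusted % inhibition.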
# [4] = target: T3, androgen receptor (AdEasy+rAR, COS-7 cells) (Rattus norvegicus, UniProt P15207); test: COS-7 Whole-Cell Androgen Receptor Binding Assay, Adenovirus Transduction
# T3 construct: expressed in transfected cells; host or cells: COS-7 cells transduced with adenovirus AdEasy+rAR
# T3 sequence (P15207 1-902): T2 sequence (P15207 1-902)
# In short: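 COS-7 cells in phenol red-free DMEM/F12 with 10% charcoal-treated FBS were transduced with AdEasy+rAR adenovirus (moi 1:50 per well), exposed to test compound in duplicate and incubated for 48 h at 37° C. Cells were then lysed in 0.5% Triton X-100 and bound radioactivity counted by scintillation.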
Compound,IC50 [1],inhibition at 1 µM ([2]; Concentration 1000 nM),IC50 [2],further results
CC(O)(COC(=O)c1ccc(Cl)cc1)c1cc2cc(Cl)c(C(F)(F)F)cc2[nH]1 (racemic) [Compound 62],325 nM,,,"% Inhibition, Androgen Receptor Binding (Rat Cytosol) ([2]; Concentration 1000 nM): 69%"
CC(O)(COC(=O)c1ccccc1C(F)(F)F)c1cc2cc(NC(=O)C(F)(F)F)c(C(F)(F)F)cc2[nH]1 (centres unmarked) [Compound 60],6750 nM,44.5%,> 10000 nM,
CC(O)(COC(=O)c1ccc(Cl)cc1)c1cc2cc([N+](=O)[O-])c(C(F)(F)F)cc2[nH]1 (centres unmarked) [Compound 55],715 nM and 635 nM,5.5%,180 nM,
CC(O)(CSc1ccccc1Cl)c1cc2cc(Cl)c(C(F)(F)F)cc2[nH]1 (centres unmarked) [Compound 84],180 nM,86%,240 nM,
CC(O)(C[S+]([O-])c1ccc(F)cc1)c1cc2cc(Cl)c(C(F)(F)F)cc2[nH]1 (centres unmarked) [Compound 113],5100 nM,,,active / inactive: inhibition of testosterone-enhanced prostate weight [3]: inactive
CC(O)(COC(=O)c1ccc(Cl)cc1)c1cc2cc(C#N)c(C(F)(F)F)cc2[nH]1 (centres unmarked) [Compound 76],1240 nM,-30.5%,,
CC(O)(CSc1ccc(Cl)c(Cl)c1)c1cc2cc(Cl)c(C(F)(F)F)cc2n1S(C)(=O)=O (centres unmarked) [Compound 86],1250 nM,72.5%,240 nM,
CC(O)(SC1CCCCC1)c1cc2cc([N+](=O)[O-])c(C(F)(F)F)cc2[nH]1 (racemic) [Compound 256],2650 nM,,,
CC(O)(CSc1ccc(F)cc1)c1cc2cc(Cl)c(C(F)(F)F)cc2[nH]1 (centres unmarked) [Compound 83],160 nM and 545 nM,69%,120 nM,
CC(O)(COC(=O)c1ccccn1)c1cc2cc([N+](=O)[O-])c(C(F)(F)F)cc2[nH]1 (centres unmarked) [Compound 68],19000 nM,36%,,
CCSCC(C)(O)c1cc2cc(Cl)c(C(F)(F)F)cc2[nH]1 (centres unmarked) [Compound 152],,,,"inhibition at 3 µM ([2]; Concentration 3000 nM): 97%; inhibition at 3 µM ([4]; concentration of 3000 nM): 39%; IC50 ([4]; read-out: IC50 (nM), COS Binding): 108 nM; active / inactive: inhibition of testosterone-enhanced prostate weight [3]: inactive"
CC(O)(COC(=O)c1ccc(Cl)c(Cl)c1)c1cc2cc(C#N)c(C(F)(F)F)cc2[nH]1 (centres unmarked) [Compound 78],3560 nM,16.6%,,
COC(=O)c1ccc2c(c1)cc(C(C)(O)CSc1ccccc1)n2S(C)(=O)=O (centres unmarked) [Compound 81],15000 nM,5.2%,,

# Reference: patent US7282507B2, “Indole derivatives as selective androgen receptor modulators (SARMS)” (Janssen Pharmaceutica N.V., priority 2004, dated 2007)
